# Results from PubChem BioAssay (NCI).
#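 These data come from cells grown in 96-well plates and exposed to compound for 48 hours at five concentrations. Here, GI50 denotes the concentration required for 50% inhibition of growth. TGI is the concentration that stops growth completely.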
# Columns and labels:
# Experiment in all cases: NCI tumour cell line growth inhibition, 48 h
# UACC-62 melanoma = test system: UACC-62 melanoma
# LOX IMVI melanoma = test system: LOX IMVI melanoma
# 786-0 renal = test system: 786-0 renal
# OVCAR-8 ovarian = test system: OVCAR-8 ovarian
# SF-295 CNS = test system: SF-295 CNS
# HOP-92 NSCLC = test system: HOP-92 NSCLC
# BT-549 breast = test system: BT-549 breast
# NCI-H23 lung = test system: NCI-H23 lung
# COLO 205 colon = test system: COLO 205 colon
# SK-MEL-5 melanoma = test system: SK-MEL-5 melanoma
# SN12C renal = test system: SN12C renal
# CAKI-1 renal = test system: CAKI-1 renal
# IGROV1 ovarian = test system: IGROV1 ovarian
# SR leukemia = test system: SR leukemia
# NCI-H226 lung = test system: NCI-H226 lung
# SNB-75 CNS = test system: SNB-75 CNS
# SK-OV-3 ovarian = test system: SK-OV-3 ovarian
# RXF 393 renal = test system: RXF 393 renal
# HCC-2998 colon = test system: HCC-2998 colon
# EKVX NSCLC = test system: EKVX NSCLC
# HL-60(TB) leukemia = test system: HL-60(TB) leukemia
# SK-MEL-28 melanoma = test system: SK-MEL-28 melanoma
# SF-268 CNS = test system: SF-268 CNS
# NCI-H460 lung = test system: NCI-H460 lung
# U251 CNS = test system: U251 CNS
# T-47D breast = test system: T-47D breast
# HOP-62 NSCLC = test system: HOP-62 NSCLC
# KM12 colon = test system: KM12 colon
# OVCAR-4 ovarian = test system: OVCAR-4 ovarian
# CCRF-CEM leukemia = test system: CCRF-CEM leukemia
# MCF7 breast = test system: MCF7 breast
# SF-539 CNS = test system: SF-539 CNS
# SK-MEL-2 melanoma = test system: SK-MEL-2 melanoma
# HT29 colon = test system: HT29 colon
# MOLT-4 leukemia = test system: MOLT-4 leukemia
# NCI-H522 lung = test system: NCI-H522 lung
# PC-3 prostate = test system: PC-3 prostate
# HS 578T breast = test system: HS 578T breast
# UACC-257 melanoma = test system: UACC-257 melanoma
# A498 renal = test system: A498 renal
# OVCAR-3 ovarian = test system: OVCAR-3 ovarian
# TK-10 renal = test system: TK-10 renal
# ACHN renal = test system: ACHN renal
# SNB-19 CNS = test system: SNB-19 CNS
# OVCAR-5 ovarian = test system: OVCAR-5 ovarian
# K-562 leukemia = test system: K-562 leukemia
# MALME-3M melanoma = test system: MALME-3M melanoma
structure (smiles),measurement,setting,value
ClC(Cl)c1nc(-c2ccccc2)n2nc(-c3ccccc3)cc2n1,GI50,UACC-62 melanoma,3.5 µM
same,TGI,UACC-62 melanoma,> 100 µM
same,GI50,LOX IMVI melanoma,> 100 µM
same,TGI,LOX IMVI melanoma,> 100 µM
same,GI50,786-0 renal,8.7 µM
same,TGI,786-0 renal,> 100 µM
same,GI50,OVCAR-8 ovarian,1.73 µM
same,TGI,OVCAR-8 ovarian,> 100 µM
same,GI50,SF-295 CNS,1.83 µM
same,TGI,SF-295 CNS,5.66 µM
same,GI50,HOP-92 NSCLC,1.41 µM
same,TGI,HOP-92 NSCLC,5.9 µM
same,GI50,BT-549 breast,> 100 µM
same,TGI,BT-549 breast,> 100 µM
same,GI50,NCI-H23 lung,1.42 µM
same,TGI,NCI-H23 lung,4.09 µM
same,GI50,COLO 205 colon,0.778 µM
same,TGI,COLO 205 colon,3.42 µM
same,GI50,SK-MEL-5 melanoma,> 100 µM
same,TGI,SK-MEL-5 melanoma,> 100 µM
same,GI50,SN12C renal,> 100 µM
same,TGI,SN12C renal,> 100 µM
same,GI50,CAKI-1 renal,1.6 µM
same,TGI,CAKI-1 renal,7.13 µM
same,GI50,IGROV1 ovarian,3.06 µM
same,TGI,IGROV1 ovarian,> 100 µM
same,GI50,SR leukemia,1.02 µM
same,TGI,SR leukemia,5.61 µM
same,GI50,NCI-H226 lung,48 µM
same,TGI,NCI-H226 lung,> 100 µM
same,GI50,SNB-75 CNS,1.12 µM
same,TGI,SNB-75 CNS,5.24 µM
same,GI50,SK-OV-3 ovarian,2.7 µM
same,TGI,SK-OV-3 ovarian,9.61 µM
same,GI50,RXF 393 renal,0.533 µM
same,TGI,RXF 393 renal,2.38 µM
same,GI50,HCC-2998 colon,0.573 µM
same,TGI,HCC-2998 colon,2.05 µM
same,GI50,EKVX NSCLC,1.94 µM
same,TGI,EKVX NSCLC,5.75 µM
same,GI50,HL-60(TB) leukemia,1.65 µM
same,TGI,HL-60(TB) leukemia,7.69 µM
same,GI50,SK-MEL-28 melanoma,1.65 µM
same,TGI,SK-MEL-28 melanoma,3.1 µM
same,GI50,SF-268 CNS,2.28 µM
same,TGI,SF-268 CNS,> 100 µM
same,GI50,NCI-H460 lung,0.411 µM
same,TGI,NCI-H460 lung,1.87 µM
same,GI50,U251 CNS,0.758 µM
same,TGI,U251 CNS,6.44 µM
same,GI50,T-47D breast,2.13 µM
same,TGI,T-47D breast,> 100 µM
same,GI50,HOP-62 NSCLC,0.586 µM
same,TGI,HOP-62 NSCLC,5.6 µM
same,GI50,KM12 colon,0.696 µM
same,TGI,KM12 colon,2.38 µM
same,GI50,OVCAR-4 ovarian,1.65 µM
same,TGI,OVCAR-4 ovarian,5.64 µM
same,GI50,CCRF-CEM leukemia,> 100 µM
same,TGI,CCRF-CEM leukemia,> 100 µM
same,GI50,MCF7 breast,1.08 µM
same,TGI,MCF7 breast,> 100 µM
same,GI50,SF-539 CNS,1.78 µM
same,TGI,SF-539 CNS,5.57 µM
same,GI50,SK-MEL-2 melanoma,31.6 µM
same,TGI,SK-MEL-2 melanoma,> 100 µM
same,GI50,HT29 colon,0.442 µM
same,TGI,HT29 colon,> 100 µM
same,GI50,MOLT-4 leukemia,3.33 µM
same,TGI,MOLT-4 leukemia,> 100 µM
same,GI50,NCI-H522 lung,3.63 µM
same,TGI,NCI-H522 lung,> 100 µM
same,GI50,PC-3 prostate,1.66 µM
same,TGI,PC-3 prostate,4.73 µM
same,GI50,HS 578T breast,1.91 µM
same,TGI,HS 578T breast,6.46 µM
same,GI50,UACC-257 melanoma,2.1 µM
same,TGI,UACC-257 melanoma,5.19 µM
same,GI50,A498 renal,1.31 µM
same,TGI,A498 renal,2.76 µM
same,GI50,OVCAR-3 ovarian,1.04 µM
same,TGI,OVCAR-3 ovarian,2.68 µM
same,GI50,TK-10 renal,1.87 µM
same,TGI,TK-10 renal,5.7 µM
same,GI50,ACHN renal,0.572 µM
same,TGI,ACHN renal,3.1 µM
same,GI50,SNB-19 CNS,1.55 µM
same,TGI,SNB-19 CNS,6.85 µM
same,GI50,OVCAR-5 ovarian,2.31 µM
same,TGI,OVCAR-5 ovarian,6.44 µM
same,GI50,K-562 leukemia,2.59 µM
same,TGI,K-562 leukemia,> 100 µM
same,GI50,MALME-3M melanoma,3.3 µM
same,TGI,MALME-3M melanoma,> 100 µM
